# Reference: patent publication US20240109900A1, “AZABICYCLIC SHP2 INHIBITORS” (IRBM S.P.A., priority 2021, published 2024)
# Where two headings read alike, the source gives them in different places.
# Key:
# [1] = molecular target: SHP-2 enzyme (Met1-Leu525) (Homo sapiens (Human), UniProt Q06124); experiment: SHP2 inhibition enzymatic assay; assay type: biochemical; conditions: read-out: SHP2wt-IC50
# How it was run: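 SHP-2 (Met1-Leu525), 0.5 nM, activated with 500 nM IRS1 bis-phosphopeptide, preincubated 30 min with compounds in HEPES pH 7.2 buffer with 5 mM DTT. 75 μM DiFMUP added for 30 min at room temperature, stopped with bpV; fluorescence read. IC50 from four-parameter logistic fit of % inhibition.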
# [2] = tested on: ERK phosphorylation in KYSE-520 cells; experiment: Phospho-ERK cellular assay; assay type: cell-based; conditions: Homo sapiens, KYSE-520 cells, 2 h at 37° C., phospho-ERK1/2 (Thr202/Tyr204) TR-FRET, read-out: PERK IC50
# How it was run: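 TR-FRET read-out of ERK1/2 Thr202/Tyr204 phosphorylation was taken after overnight antibody incubation at room temperature. Before that, KYSE-520 cells were treated 2 h at 37 °C with compound dilutions and lysed 30 min. Percent inhibition relative to vehicle and cell-free wells was fitted four-parametrically to give IC50.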
# [3] = 0.5 nM SHP-2 activated by 500 nM IRS1 peptide, 75 μM DiFMUP substrate
# SHP-2 enzyme (Met1-Leu525), sequence (Q06124 1-525): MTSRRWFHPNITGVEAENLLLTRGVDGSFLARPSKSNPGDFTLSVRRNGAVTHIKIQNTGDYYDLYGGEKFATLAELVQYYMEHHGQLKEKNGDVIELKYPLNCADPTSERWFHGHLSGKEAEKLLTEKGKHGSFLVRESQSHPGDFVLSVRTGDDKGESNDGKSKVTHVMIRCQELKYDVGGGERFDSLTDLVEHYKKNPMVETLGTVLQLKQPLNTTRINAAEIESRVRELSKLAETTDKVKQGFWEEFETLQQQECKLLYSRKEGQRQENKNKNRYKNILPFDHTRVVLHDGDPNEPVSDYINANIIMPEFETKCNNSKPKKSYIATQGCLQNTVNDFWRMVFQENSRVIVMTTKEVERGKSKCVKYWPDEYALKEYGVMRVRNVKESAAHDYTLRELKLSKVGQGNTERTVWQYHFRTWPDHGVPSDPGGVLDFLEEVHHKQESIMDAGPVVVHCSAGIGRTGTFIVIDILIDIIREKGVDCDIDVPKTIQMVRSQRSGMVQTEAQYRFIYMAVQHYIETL
Structure (SMILES),"IC50 [1, 3]","IC50 ([2]; KYSE-520, 2 h)",IC50 [1],IC50 [2]
"Cc1cc(C2(CN)C3CCN(c4cnc5c(-c6cccc(Cl)c6Cl)n[nH]c5n4)CC32)on1 (stereo not shown) [Example 6, (3-(3-(2,3-dichlorophenyl)-1H-pyrazolo[3,4-b]pyrazin-6-yl)-7-(3-methylisoxazol-5-yl)-3-azabicyclo[4.1.0]heptan-7-yl)methanamine]",< 500 nM,< 1000 nM,–,–
"Cc1csc(C2(CN)C3CCN(c4nc5nc(Sc6ccnc(N)c6Cl)cnc5[nH]4)CC32)n1 (stereo not shown) [Example 70, 4-((2-(7-(aminomethyl)-7-(4-methylthiazol-2-yl)-3-azabicyclo[4.1.0]heptan-3-yl)-1H-imidazo[4,5-b]pyrazin-5-yl)thio)-3-chloropyridin-2-amine]",–,–,< 500 nM,< 1000 nM
"Cn1cc2c(Cl)c(-c3n[nH]c4nc(N5CC[C@@H]6[C@H](C5)[C@@]6(CN)c5ccc(F)cn5)cnc34)ccc2n1 [Example 120, ((1S,6R,7S)-3-(3-(4-chloro-2-methyl-2H-indazol-5-yl)-1H-pyrazolo[3,4-b]pyrazin-6-yl)-7-(5-fluoropyridin-2-yl)-3-azabicyclo[4.1.0]heptan-7-yl)methanamine]",< 500 nM,< 1000 nM,–,–

# Further lines, with some results ahead:
"IC50 [1, 3]","IC50 ([2]; KYSE-520, 2 h)",Structure (SMILES),IC50 [1],IC50 [2]
< 500 nM,< 1000 nM,"NC[C@]1(c2ccccc2F)[C@@H]2CCN(c3cnc4c(-c5ccn6nccc6c5Cl)n[nH]c4n3)C[C@@H]21 [Example 438, ((1S,6R,7R)-3-(3-(4-chloropyrazolo[1,5-a]pyridin-5-yl)-1H-pyrazolo[3,4-b]pyrazin-6-yl)-7-(2-fluorophenyl)-3-azabicyclo[4.1.0]heptan-7-yl)methanamine]",–,–
< 500 nM,< 1000 nM,"Cc1c(-c2n[nH]c3nc(N4CC[C@@H]5[C@H](C4)[C@@]5(CN)c4ccccc4F)cnc23)ccc2nonc12 [Example 193, ((1S,6R,7R)-7-(2-fluorophenyl)-3-(3-(4-methylbenzo[c][1,2,5]oxadiazol-5-yl)-1H-pyrazolo[3,4-b]pyrazin-6-yl)-3-azabicyclo[4.1.0]heptan-7-yl)methanamine]",–,–
